# Experimental data from US20120309812A1 (SYNGENTA CROP PROTECTION LLC, priority 2010, published 2012).
# Columns and labels:
# Myzus persicae = Myzus persicae (Green peach aphid) sunflower leaf disc spray test; assay type: in vivo; settings: application rate 200 ppm, sprayed sunflower leaf discs, aphid population of mixed ages, mortality 6 DAT
# Experimental: Myzus persicae (Green peach aphid):
# Sunflower leaf discs were placed on agar in a 24-well microtiter plate and sprayed with test solutions at an application rate of 200 ppm. After drying, the leaf discs were infested with an aphid population of mixed ages. After an incubation period of 6 DAT, samples were checked for mortality. The following compound gave at least 80% control of Myzus persicae: A3.
melting point [°C],Compound,control of Myzus persicae (Myzus persicae)
–,COc1c(NC(=O)c2ccccc2)cccc1C(=O)Nc1c(Cl)cc(C(F)(c2ccc(Cl)cc2)C(F)(F)F)cc1Cl (centres unmarked) [A3],at least 80%
197 to 199,"O=C(Nc1c(Cl)cc(C(F)(c2ccsc2)C(F)(F)F)cc1Cl)c1cccc(NC(=O)c2c(F)cc(F)cc2F)c1F (centres unmarked) [A5, N-{3-[2,6-Dichloro-4-(2,2,2-trifluoro-1-fluoro-1-thiophen-3-ylethyl)-phenylcarbamoyl]-2-fluorophenyl}-2,4,6-trifluorobenzamide]",–
